Laboratory results taken from PubChem BioAssay (NCI).
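Dose response: 5 concentrations. Exposure: 48 h. Format: 96-well plates. Endpoint: linear interpolation; highest concentration if not reached. Definition used: TGI = concentration required for complete inhibition of growth.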

How the values were obtained:
Assay in all cases: NCI-60 cell line screen, 48 h
[1] = tested on: HCT-15 colon
[2] = tested on: 786-0 renal
[3] = tested on: UACC-257 melanoma
[4] = tested on: HCC-2998 colon
[5] = tested on: T-47D breast
[6] = tested on: MDA-N
[7] = tested on: K-562 leukemia
[8] = tested on: SK-MEL-2 melanoma
[9] = tested on: HOP-92 NSCLC
[10] = tested on: M14 melanoma
[11] = tested on: NCI-H460 lung
[12] = tested on: NCI-H522 lung
[13] = tested on: SW-620 colon
[14] = tested on: HL-60(TB) leukemia
[15] = tested on: SNB-75 CNS
[16] = tested on: MCF7 breast
[17] = tested on: SR leukemia
[18] = tested on: BT-549 breast
[19] = tested on: SK-MEL-28 melanoma
[20] = tested on: OVCAR-3 ovarian
[21] = tested on: CAKI-1 renal
[22] = tested on: UO-31 renal
[23] = tested on: HT29 colon
[24] = tested on: HCT-116 colon
[25] = tested on: CCRF-CEM leukemia
[26] = tested on: KM12 colon
[27] = tested on: SF-539 CNS
[28] = tested on: NCI-H23 lung
[29] = tested on: EKVX NSCLC
[30] = tested on: A549 NSCLC
[31] = tested on: ACHN renal
[32] = tested on: RPMI-8226 leukemia
[33] = tested on: SF-295 CNS
[34] = tested on: RXF 393 renal
[35] = tested on: SN12C renal
[36] = tested on: OVCAR-5 ovarian
[37] = tested on: NCI/ADR-RES ovarian
[38] = tested on: LOX IMVI melanoma
[39] = tested on: MALME-3M melanoma
[40] = tested on: MDA-MB-231 breast
[41] = tested on: TK-10 renal
[42] = tested on: OVCAR-8 ovarian
[43] = tested on: SF-268 CNS
[44] = tested on: SK-MEL-5 melanoma
[45] = tested on: PC-3 prostate
[46] = tested on: MDA-MB-435
[47] = tested on: A498 renal
[48] = tested on: UACC-62 melanoma
[49] = tested on: SK-OV-3 ovarian
[50] = tested on: U251 CNS
[51] = tested on: OVCAR-4 ovarian
[52] = tested on: COLO 205 colon
[53] = tested on: SNB-19 CNS
[54] = tested on: HS 578T breast
[55] = tested on: NCI-H226 lung
[56] = tested on: MOLT-4 leukemia
[57] = tested on: DU-145 prostate
[58] = tested on: IGROV1 ovarian
[59] = tested on: HOP-62 NSCLC
[60] = tested on: DMS 273 small cell lung
[61] = tested on: HOP-18 NSCLC
[62] = tested on: M19-MEL melanoma
[63] = tested on: KM20L2 colon
[64] = tested on: DLD-1 colon
[65] = tested on: LXFL 529 NSCLC
[66] = tested on: SNB-78 CNS
[67] = tested on: DMS 114 small cell lung

Measured: TGI

COc1cc2c(cc1OC)C(=O)/C(=C/c1ccccc1)C2
71.6 µM: [32]
7.24 µM: [47]
98.1 µM: [15]
> 67.7 µM: [48]
50 µM: [14]
> 84.1 µM: [44]
99.4 µM: [25]
> 65.6 µM: [7]
43.9 µM: [56]
not listed: [60] | [61] | [62] | [63] | [64] | [65] | [66] | [67]
> 100 µM: all other assays above

Clc1ccc(CCn2cncn2)c(Cl)c1
not listed: [5] | [6] | [8] | [16] | [18] | [32] | [34] | [37] | [38] | [39] | [40] | [45] | [46] | [47] | [54] | [57]
> 100 µM: all other assays above

O=c1[nH][nH]c(=S)c(=O)[nH]1
not listed: [4] | [60] | [61] | [62] | [63] | [64] | [65] | [66] | [67]
> 100 µM: all other assays above
